# Tests used:
# Type in all cases: functional
# Staphylococcus aureus [1] = assay: Antimicrobial activity against compound treated Staphylococcus aureus harboring mgrA C12S mutant gene retro-orbitally infected into mouse assessed as reduction in bacterial CFU in liver at 10 ug/ml relative to control
# Staphylococcus aureus [2] = assay: Antimicrobial activity against compound treated Staphylococcus aureus harboring mgrA C12S mutant gene retro-orbitally infected into mouse assessed as reduction in bacterial CFU in kidney at 10 ug/ml relative to control
# Staphylococcus aureus [3] = assay: Antimicrobial activity against Staphylococcus aureus expressing mgrA C12S mutant gene
# Staphylococcus aureus [4] = assay: Antimicrobial activity against Staphylococcus aureus
compound,measurement,setting,value
CC[C@H]1OC(=O)[C@H](C)[C@@H](O[C@H]2C[C@@](C)(OC)[C@@H](O)[C@H](C)O2)[C@H](C)[C@@H](O[C@@H]2O[C@H](C)C[C@H](N(C)C)[C@H]2O)[C@](C)(O)C[C@@H](C)C(=O)[C@H](C)[C@@H](O)[C@]1(C)O [ERYTHROMYCIN],fold change (FC),Staphylococcus aureus [1],100
same,fold change (FC),Staphylococcus aureus [2],10000
CCn1cc(C(=O)O)c(=O)c2cc(F)c(N3CCNCC3)cc21 [NORFLOXACIN],MIC,Staphylococcus aureus [3],1.4 µg/mL
same,MIC,Staphylococcus aureus [4],0.7 µg/mL

# Reference: ChEMBL document CHEMBL1240316, “An oxidation-sensing mechanism is used by the global regulator MgrA in Staphylococcus aureus” (2006)
